# From patent US20240381872A1, “SUBSTITUTED 2,3-DIHYDRO[1,3]THIAZOLO[4,5-B]PYRIDINES, SALTS THEREOF AND THEIR USE AS HERBICIDALLY ACTIVE SUBSTANCES” (BAYER AKTIENGESELLSCHAFT, priority 2021, published 2024)
# How the values were obtained:
# Format in all cases: in vivo
# [1] = test system: Zea mays (ZEAMX); experiment: Pre-emergence effects on crop plants, section D (Table D1); details: visual grading after ca. 3 weeks
# Method in brief: (§1)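 Seeds sown in sandy loam and covered with soil; WP or EC formulations applied to the covering soil surface as aqueous suspension/emulsion with 0.5% additive at 600 l water/ha, at 320 g/ha or below. Greenhouse growth; visual damage scored after ca. 3 weeks versus untreated controls (0% = as control, 100% = dead).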
# [2] = test system: Digitaria sanguinalis (DIGSA); experiment: Herbicidal pre-emergence action, section C (Table C12); details: visual grading after ca. 3 weeks
# Method in brief: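 Weed and crop seeds sown in sandy loam, covered with soil, then WP or EC formulations sprayed onto the soil surface as aqueous suspension/emulsion with 0.5% additive at 600 l water/ha. Kept in greenhouse under optimum conditions; damage graded visually after ca. 3 weeks versus untreated controls (0% = as control, 100% = plants dead).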
# [3] = test system: Setaria viridis (SETVI); experiment: Herbicidal post-emergence action, section B (Table B8); details: application rate 1280 g/ha, visual rating about 3 weeks after treatment vs untreated controls; for pest or weed control at 1280 g/ha: Setaria viridis, post-emergence, 504 h, read-out: post-emergence activity against SETVI in %
# Method in brief: (§2)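 Greenhouse post-emergence spray on one-leaf-stage plants (sown in sandy loam, 2 to 3 weeks old). WP/EC formulations in water + 0.5% additive, 600 liters per hectare. Read-out: visual % activity vs untreated, ~3 weeks after treatment; 100% = dead, 0% = as control.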
# [4] = test system: Stellaria media (STEME); experiment: Herbicidal post-emergence action, section B (Table B9); details: visual rating about 3 weeks after treatment vs untreated controls
# Method in brief: as §2
# [5] = test system: Echinochloa crus-galli (ECHCG); experiment: Herbicidal post-emergence action, section B (Table B3); details: rated visually after about 3 weeks
# Method in brief: as §2
# [6] = test system: Zea mays (ZEAMX); experiment: Post-emergence effects on crop plants, section F (Table F1); details: for percent crop plant damage (phytotoxicity) on Zea mays, post-emergence at 320 g/ha: 504 h, read-out: post-emergence activity against ZEAMX in %; for post-emergence activity against ZEAMX in %: crop plant damage
# Method in brief: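 Crops grown in sandy loam in the greenhouse were sprayed post-emergence at the single-leaf stage, 2-3 weeks after sowing. Compounds were formulated as WP or EC with 0.5% additive and applied in 600 l water/ha at 320 g/ha or below. Damage was scored visually about 3 weeks later as % effect versus untreated controls (100% = dead).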
# [7] = test system: Setaria viridis (SETVI); experiment: Herbicidal pre-emergence action, section A (Table A8); details: for pre-emergence activity against SETVI in % / pest or weed control at 320 g/ha: application rate 320 g/ha
# Method in brief: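 Read-out is visual herbicidal effect in percent (100% = plants died, 0% = as control), graded ca. 3 weeks after treatment. Test compounds as WP or EC were applied to covering soil over sown seeds with 0.5% additive, 600 l water per hectare; greenhouse growth.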
# [8] = test system: Glycine max (GLXMA); experiment: Pre-emergence effects on crop plants, section D (Table D4); details: application rate 320 g/ha; visual grading after ca. 3 weeks
# Method in brief: as §1
# [9] = test system: Veronica persica (VERPE); experiment: Herbicidal post-emergence action, section E (Table E9); details: visual assessment ca. 3 weeks after spraying
# From the text: Seeds of mono- and dicotyledonous weed plants and crop plants were sown, in plastic or organic planting pots, in sandy loam, covered with soil and grown in a greenhouse under controlled growth conditions. 2 to 3 weeks after sowing, the test plants were sprayed in the single-leaf stage. The compounds according to the invention, formulated in form of wettable powders (WP) or as emulsifiable concentrates (EC), were sprayed onto the green plant parts as aqueous suspension or emulsion, with the addition of 0.5% of an additive, at an application rate of 600 l of water/ha (converted). The test plants were placed in the greenhouse for ca. 3 weeks under optimum growth conditions, and then the effect of the preparations was assessed visually in comparison with untreated controls (herbicidal effect in percent (%): 100% effect=plants have died off, 0% effect=as control plants).
# [10] = Stellaria media, post-emergence, 504 h, application rate 1280 g/ha, read-out: post-emergence activity against STEME in %
# [11] = Echinochloa crus-galli, 504 h, application rate 1280 g/ha, read-out: post-emergence activity against ECHCG in %
# [12] = Digitaria sanguinalis, pre-emergence, 504 h, application rate 320 g/ha, read-out: pre-emergence activity against DIGSA in %
# [13] = Setaria viridis, 504 h, read-out: pre-emergence activity against SETVI in %
structure (smiles),measurement,setting,value
"CC(=O)N1CSc2cc(Br)c(-c3ccccc3Cl)nc21 [Example I-055, 1-[6-bromo-5-(2-chlorophenyl)[1,3]thiazolo[4,5-b]pyridin-3(2H)-yl]ethanone]",pre-emergence activity against ZEAMX in % (crop plant damage),[1]; application rate 320 g/ha,0%
same,pest or weed control at 80 g/ha,"[2]; Digitaria sanguinalis, pre-emergence, 504 h, application rate 80 g/ha, read-out: pre-emergence activity against DIGSA in %",90%
same,pest or weed control at 1280 g/ha,[3],90%
same,pest or weed control at 1280 g/ha,[4]; [10],90%
same,pest or weed control at 1280 g/ha,[5]; [11],90%
same,"percent crop plant damage (phytotoxicity) on Zea mays, post-emergence at 320 g/ha",[6]; application rate 320 g/ha,0%
same,pest or weed control at 1280 g/ha,"[7]; Setaria viridis, 504 h, application rate 1280 g/ha, read-out: pre-emergence activity against SETVI in %",100%
same,pre-emergence activity against GLXMA in % (crop plant damage),[8],20%
Cc1cc2c(nc1-c1cccc(C)c1F)NCS2 [Example I-113],pre-emergence activity against ZEAMX in % (crop plant damage),[1]; application rate 320 g/ha,0%
same,pre-emergence activity against DIGSA in %,[2]; application rate 320 g/ha,100%
same,post-emergence activity against STEME in %,[4]; application rate 1280 g/ha,90%
same,post-emergence activity against ZEAMX in %,[6]; application rate 320 g/ha,0%
same,pre-emergence activity against SETVI in %,[7],100%
same,pre-emergence activity against GLXMA in % (crop plant damage),[8],10%
Cc1cc2c(nc1-c1ccccc1F)N(C(=O)C1(C)CC(Cl)=NO1)CS2 (stereo not shown) [Example I-083],pre-emergence activity against ZEAMX in % (crop plant damage),[1]; application rate 80 g/ha,10%
same,pre-emergence activity against DIGSA in %,[2]; application rate 320 g/ha,100%
same,post-emergence activity against SETVI in %,[3],90%
same,post-emergence activity against STEME in %,[4]; application rate 320 g/ha,90%
same,post-emergence activity against ECHCG in %,[5]; application rate 1280 g/ha,90%
same,post-emergence activity against ZEAMX in %,[6]; application rate 80 g/ha,10%
same,post-emergence activity against VERPE in %,[9]; application rate 80 g/ha,90%
same,pre-emergence activity against SETVI in %,[7],100%
"CC1(C(=O)N2CSc3cc(Br)c(-c4ccccc4Cl)nc32)CC(Cl)=NO1 (stereo not shown) [Example I-141, [6-bromo-5-(2-chlorophenyl)[1,3]thiazolo[4,5-b]pyridin-3(2H)-yl](3-chloro-5-methyl-4,5-dihydro-1,2-oxazol-5-yl)methanone]",pre-emergence activity against ZEAMX in % (crop plant damage),[1]; application rate 80 g/ha,0%
same,pest or weed control at 320 g/ha,[2]; [12],90%
same,pest or weed control at 1280 g/ha,[4]; [10],90%
same,pest or weed control at 1280 g/ha,[5]; [11],90%
same,"percent crop plant damage (phytotoxicity) on Zea mays, post-emergence at 320 g/ha",[6]; application rate 320 g/ha,0%
same,pest or weed control at 320 g/ha,"[9]; Veronica persica, 504 h, application rate 320 g/ha, read-out: post-emergence activity against VERPE in %",80%
same,pest or weed control at 320 g/ha,[7]; [13],100%
CC1(C(=O)N2CSc3cc(Br)c(-c4ccccc4)nc32)CC(Cl)=NO1 (stereo not shown) [Example I-139],pre-emergence activity against ZEAMX in % (crop plant damage),[1]; application rate 320 g/ha,20%
same,pre-emergence activity against DIGSA in %,[2]; application rate 320 g/ha,100%
same,post-emergence activity against SETVI in %,[3],90%
same,post-emergence activity against STEME in %,[4]; application rate 1280 g/ha,90%
same,post-emergence activity against ECHCG in %,[5]; application rate 1280 g/ha,90%
same,post-emergence activity against ZEAMX in %,[6]; application rate 320 g/ha,0%
same,post-emergence activity against VERPE in %,[9]; application rate 320 g/ha,80%
same,pre-emergence activity against SETVI in %,[7],100%
COCC1(C(=O)N2CSc3cc(C)c(-c4ccccc4F)nc32)CC(Cl)=NO1 (stereo not shown) [Example I-128],pre-emergence activity against ZEAMX in % (crop plant damage),[1]; application rate 80 g/ha,0%
same,pre-emergence activity against DIGSA in %,[2]; application rate 80 g/ha,100%
same,post-emergence activity against SETVI in %,[3],90%
same,post-emergence activity against STEME in %,[4]; application rate 320 g/ha,90%
same,post-emergence activity against ECHCG in %,[5]; application rate 320 g/ha,90%
same,post-emergence activity against ZEAMX in %,[6]; application rate 320 g/ha,0%
same,post-emergence activity against VERPE in %,[9]; application rate 80 g/ha,80%
same,pre-emergence activity against SETVI in %,[7],100%
"Clc1ccccc1-c1nc2c(cc1Br)SCN2 [Example I-041, 6-bromo-5-(2-chlorophenyl)-2,3-dihydro[1,3]thiazolo[4,5-b]pyridine]",pre-emergence activity against ZEAMX in % (crop plant damage),[1]; application rate 80 g/ha,0%
same,pest or weed control at 320 g/ha,[2]; [12],100%
same,pest or weed control at 1280 g/ha,[3],90%
same,pest or weed control at 320 g/ha,"[4]; Stellaria media, post-emergence, 504 h, application rate 320 g/ha, read-out: post-emergence activity against STEME in %",90%
same,pest or weed control at 320 g/ha,"[5]; Echinochloa crus-galli, 504 h, application rate 320 g/ha, read-out: post-emergence activity against ECHCG in %",100%
same,"percent crop plant damage (phytotoxicity) on Zea mays, post-emergence at 320 g/ha",[6]; application rate 320 g/ha,20%
same,pest or weed control at 320 g/ha,[7]; [13],100%
